Patent publication US20060287252A1, “Substances k01-0509 and process for producing the same” (priority 2004, published 2006)

Tests used:
Format in all cases: cell-based
[1] = test system: enteropathogenic E. coli E2348/69 (wild strain)
[2] = test system: Xanthomonas campestris pv. oryzae KB88
[3] = test system: Bacillus subtilis ATCC 6633; assay: Antibiotic activity by paper disc method; conditions: 10 μg/disc, paper disc 6 mm, nutrient agar, 24 hours cultivation
[4] = test system: Micrococcus luteus ATCC 9341; assay: Antibiotic activity by paper disc method; conditions: 10 μg/disc, paper disc 6 mm, nutrient agar, 24 hours cultivation
[5] = test system: E. coli NIHJ; assay: Antibiotic activity by paper disc method; conditions: 10 μg/disc, paper disc 6 mm, nutrient agar, 24 hours cultivation

Measured: inhibition zone

CC(NC(=O)C1NC(C)C(=O)NC1CCC(O)C(O)CC1CNC(=N)N1C(N)=O)C(=O)NC(C(=O)O)C(C)C (stereo not shown) [K01-0509-A2 substance]
no inhibition zone: [1] | [2]

CC(NC(=O)C1NC(C)C(=O)NC1CCC(O)C(O)CC1CNC(=N)N1C(N)=O)C(=O)NC(C(=O)O)C(C)C (stereo not shown) [K01-0509-A1 substance]
no inhibition zone: all assays above
